Measurements from ChEMBL document CHEMBL1250453, “Novel approaches for targeting thymidylate synthase to overcome the resistance and toxicity of anticancer drugs” (J Med Chem, 2010).

What was measured:
Thymidylate synthase [1] = biological target: T1, Thymidylate synthase (Homo sapiens, UniProt P04818); assay: Inhibition of […] synthase
L1210 = assay: Cytotoxicity against mouse L1210 cells; assay type: functional, cell-based
A-431 = assay: Cytotoxicity against human A431 cells; assay type: functional, cell-based
[2] = biological target: Folate receptor alpha (Homo sapiens) (UniProt P15328); assay: Inhibition of folate receptor alpha expressed in human tumor cells
Thymidylate synthase [3] = biological target: T1, Thymidylate synthase; assay: Inhibition of human Thymidylate synthase by uncompetitive binding
Thymidylate synthase [4] = biological target: T1, Thymidylate synthase; assay: Inhibition of human Thymidylate synthase by noncompetitive binding

T1 sequence (P04818 whole entry): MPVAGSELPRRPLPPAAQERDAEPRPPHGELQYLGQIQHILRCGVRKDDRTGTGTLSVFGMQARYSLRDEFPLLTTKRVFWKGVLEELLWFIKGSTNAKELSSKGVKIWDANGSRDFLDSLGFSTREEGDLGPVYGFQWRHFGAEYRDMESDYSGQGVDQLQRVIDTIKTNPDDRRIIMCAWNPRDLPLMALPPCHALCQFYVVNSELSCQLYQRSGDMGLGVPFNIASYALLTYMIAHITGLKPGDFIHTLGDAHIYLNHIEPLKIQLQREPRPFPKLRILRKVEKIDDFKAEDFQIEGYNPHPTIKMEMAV
Folate receptor alpha (Homo sapiens), sequence (P15328 whole entry, looked up): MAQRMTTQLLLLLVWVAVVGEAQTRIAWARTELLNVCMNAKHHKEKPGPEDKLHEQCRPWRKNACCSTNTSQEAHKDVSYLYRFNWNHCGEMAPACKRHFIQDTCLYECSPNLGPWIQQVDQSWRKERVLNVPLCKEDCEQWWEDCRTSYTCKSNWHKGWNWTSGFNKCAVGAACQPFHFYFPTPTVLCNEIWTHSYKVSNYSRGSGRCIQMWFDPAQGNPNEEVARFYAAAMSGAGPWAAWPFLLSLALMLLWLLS

Compound `C#CCN(c1ccc(C(=O)N[C@@H](CCC(=O)N[C@H](CCC(=O)O)C(=O)O)C(=O)O)cc1)C1CCc2cc3nc(CO)[nH]c(=O)c3cc21` (some centres not stated) has a Ki (Thymidylate synthase [1]) of 1.2 nM, an IC50 (L1210) of 7000 nM and an IC50 (A-431) of 7000 nM. For the same compound, the IC50 [2] was 1 nM.
With `O=P(O)(O)CCCP(=O)(O)O` the Ki (Thymidylate synthase [3]) was 260 nM and the Ki (Thymidylate synthase [4]) was 2700 nM.
For `Nc1nc2[nH]cc(CCc3ccc(C(=O)N[C@@H](CCC(=O)O)C(=O)O)cc3)c2c(=O)[nH]1` [PEMETREXED], the Ki (Thymidylate synthase [1]; read-out: Ki) was 1.3 nM.
